Test results: publication PMC11570809, “Novel N-phenyl-2-(aniline) benzamide hydrochloride salt development for colon cancer therapy” (Frontiers in Pharmacology, 2024)
Counter-ions that a name gives are not always drawn. Like-named read-outs stand apart in the source and are kept apart here.

Tests used:
[1] = biological target: T1, Topo I (Bos taurus, UniProt F1MN93); assay: Topo I-mediated DNA relaxation assay; type: biochemical; conditions: relaxation of supercoiled pBR322
T1 construct: purchased Takara Biotechnology, Dalian, China
T1 sequence (F1MN93 1-767): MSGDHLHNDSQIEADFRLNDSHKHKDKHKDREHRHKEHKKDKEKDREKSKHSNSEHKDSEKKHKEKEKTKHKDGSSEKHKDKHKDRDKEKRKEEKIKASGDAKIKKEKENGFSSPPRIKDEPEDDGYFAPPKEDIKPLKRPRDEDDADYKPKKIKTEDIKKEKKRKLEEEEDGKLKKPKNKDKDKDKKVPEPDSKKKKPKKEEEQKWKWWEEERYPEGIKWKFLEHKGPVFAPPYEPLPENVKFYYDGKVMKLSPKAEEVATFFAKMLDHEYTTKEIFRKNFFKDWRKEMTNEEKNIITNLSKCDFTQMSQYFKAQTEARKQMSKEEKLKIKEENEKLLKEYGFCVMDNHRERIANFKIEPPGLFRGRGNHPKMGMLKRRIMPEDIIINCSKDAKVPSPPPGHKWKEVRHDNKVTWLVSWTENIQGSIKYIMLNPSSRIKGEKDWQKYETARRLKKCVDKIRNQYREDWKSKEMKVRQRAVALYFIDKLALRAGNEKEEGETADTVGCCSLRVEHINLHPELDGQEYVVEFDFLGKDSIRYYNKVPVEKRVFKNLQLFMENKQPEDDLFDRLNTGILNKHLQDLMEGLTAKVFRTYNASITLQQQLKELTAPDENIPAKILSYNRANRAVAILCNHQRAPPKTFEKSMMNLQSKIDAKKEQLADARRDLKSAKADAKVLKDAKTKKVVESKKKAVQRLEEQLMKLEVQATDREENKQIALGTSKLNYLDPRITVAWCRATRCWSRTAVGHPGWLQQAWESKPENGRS
Experimental: In brief, 2 μL Topo I Assay Buffer, 2 μL 0.1% BSA solution, 1 μL 1 U/μL Topo I solution, 0.2 μL test compound solution, and 0.5 μL DNA solution (0.25 μg) were added orderly with the corresponding volume of ultrapure water to make the above system volume 20 μL (Takara Biotechnology, Dalian, China). The above system was incubated at 37°C, the incubation continued for 45 min, and then 10 μL of a mixture of equal phenol and chloroform organic solvent was added for extraction to terminate the reaction. The aqueous phase was separated by centrifugation, the corresponding volume of 6 × DNA loading buffer was added, and then 0.8% agarose gel and 1 × TAE electrophoresis solution were used for electrophoresis at 110 V for 1 h. After electrophoresis, the gel was placed in a 0.5 μg/mL of ethidium bromide (EB) solution for 30 min, then recorded and photographed at 302 nm wavelength.

[2] = test system: HepG2; assay: MTT anti-proliferation assay, HepG2; type: cell-based, human; conditions: read-out: IC50 ± SD HepG2
[3] = test system: HCT116; assay: MTT anti-proliferation assay, HCT116; type: cell-based, human; conditions: 72 h, read-out: IC50 ± SD HCT116
Experimental: The anti-proliferation activities of synthesized compounds to colon cancer cell lines were measured by the MTT (3-[4,5-dimethyl-2-thiazolyl]-2,5-diphenyl-2H-tet razolium bromide) assay. First, the cell suspension was prepared by trypsin and the corresponding medium, cells were diluted to 5 × 10^5 cells/mL, and 96-well plates were added 200 μL per well. The plates were maintained at 37°C in a humidified atmosphere containing 5% CO2 overnight. Then compounds at gradient concentrations were added to cells in the logarithmic phase to make the final concentration at 0.5, 1, 2, 4, 8, 16, and 32 μM. The cells were treated with tested compounds for 72 h, and the growth curve assay was tested in 24 h. When the time was up, 20 μL of MTT solution (5 mg/mL in PBS) was added into each well to incubate for 4 h at 37°C. Then the supernatant liquid was removed, 150 μL DMSO was added into every well to dissolve formazan crystals and read the absorbance at 570 nm by Spark microplate spectrophotometer (Tecan, Swiss). The IC50 values were analyzed by IBM SPASS Statistics 25.0 software. The data are all derived from three parallel experiments (n = 3) and expressed as mean ± SD.

[4] = biological target: T2, Human COX-2 (Homo sapiens, UniProt P35354); assay: COX-2 inhibition assay (Human COX-2 Inhibitor Screening Kit); type: biochemical
T2 construct: purchased Beyotime S0168
T2 sequence (P35354 18-604): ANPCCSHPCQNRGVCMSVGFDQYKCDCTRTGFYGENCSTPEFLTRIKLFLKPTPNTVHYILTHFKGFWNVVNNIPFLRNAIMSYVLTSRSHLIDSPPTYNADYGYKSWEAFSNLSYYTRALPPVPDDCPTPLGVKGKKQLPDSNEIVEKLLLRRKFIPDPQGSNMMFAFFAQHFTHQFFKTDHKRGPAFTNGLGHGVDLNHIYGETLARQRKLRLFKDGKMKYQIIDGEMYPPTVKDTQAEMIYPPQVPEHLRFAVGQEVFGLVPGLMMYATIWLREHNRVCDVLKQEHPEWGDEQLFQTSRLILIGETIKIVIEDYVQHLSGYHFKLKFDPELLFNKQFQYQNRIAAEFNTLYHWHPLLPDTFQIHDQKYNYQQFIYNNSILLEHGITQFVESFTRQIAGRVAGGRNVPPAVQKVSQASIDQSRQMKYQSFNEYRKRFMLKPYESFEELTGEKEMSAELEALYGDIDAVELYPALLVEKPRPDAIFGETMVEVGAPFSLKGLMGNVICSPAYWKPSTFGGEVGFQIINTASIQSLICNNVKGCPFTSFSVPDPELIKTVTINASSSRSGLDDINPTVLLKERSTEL
Experimental: The COX-2 inhibitory activity of all the synthesized compounds was measured by the Human COX-2 Inhibitor Screening Kit (Beyotime, catalog no. S0168), and the specific steps were followed strictly according to the instructions. The lead compound N53 was also tested for reference purposes. The absorbance was measured at an excitation wavelength of 560 nm and an emission wavelength of 590 nm in a microplate reader. Each experimental condition was performed in triplicate and averaged.

[5] = test system: HuH7; assay: MTT anti-proliferation assay, HuH7; type: cell-based, human; conditions: 72 h, read-out: IC50 ± SD HuH7
[6] = test system: SK-Hep-1; assay: MTT anti-proliferation assay, SK-Hep-1; type: cell-based, human; conditions: read-out: IC50 ± SD SK-Hep-1

Compound	Inhibition rate (%) of Topo I (100 μM) [1] [%]	IC50 ([2]; 72 h) [µM]	IC50 [3] [µM]	Inhibition rate (%) of COX-2 (2 μM) [4] [%]	IC50 [5] [µM]	IC50 ([6]; 72 h) [µM]	IC50 ([2]; Homo sapiens, HepG2, 72 h) [µM]	IC50 ([6]; Homo sapiens, SK-HEP1, 72 h) [µM]
Cc1c(Cl)cccc1Nc1ccccc1C(=O)Nc1ccc(N2CCN(C)CC2)cc1 [Compound N53, 2-((3-chloro-2-methylphenyl)amino)-N-(4-(4-methylp-iperazin-1-yl)phenyl)benzamide]	11.7	2.31 ± 0.09	3.89 ± 0.41	3.6 ± 1.1	3.67 ± 0.38	5.66 ± 0.47	–	–
Cc1c(Cl)cccc1Nc1ccccc1C(=O)Nc1ccc(N2CCN(C)CC2)cc1 [N53·HCl, 4-(4-(2-((3-chloro-2-methylphenyl)amino)ben-zamido)phenyl)-1-methylpiperazin-1-ium]	55.1	–	10.9 ± 1.3	32.5 ± 7.8	11.7 ± 0.75	–	4.12 ± 0.39	8.18
